Measured values reported in ChEMBL document CHEMBL1137360, “Structure-activity relationships of a novel series of urotensin II analogues: identification of a urotensin II antagonist” (J Med Chem, 2006).
Activity calls are given as the source filed them. No cut-off for these calls is given here. Positions of bridges follow the written chain, without caps; N, C: chain ends. Non-standard residues stand in square brackets, D forms with d. Residues, ends and D or L forms follow the SMILES beside them. Phe(4-tBu) = CC(C)(C)c1ccc(C[C@H](N)C(=O)O)cc1; Oic = O=C(O)[C@@H]1C[C@@H]2CCCC[C@@H]2N1; Bta = N[C@@H](Cc1csc2ccccc12)C(=O)O; 2Thi = N[C@@H](Cc1cccs1)C(=O)O; Cha = N[C@@H](CC1CCCCC1)C(=O)O

Experiments:
[1] = target: T1, Urotensin-2 receptor (Homo sapiens, UniProt Q9UKP6); experiment: Displacement of [125I]human urotensin-2 from human GPR14 transfected in CHO cells; type: cell-based; settings: for Log Ki: cho
T1 sequence (Q9UKP6 whole entry): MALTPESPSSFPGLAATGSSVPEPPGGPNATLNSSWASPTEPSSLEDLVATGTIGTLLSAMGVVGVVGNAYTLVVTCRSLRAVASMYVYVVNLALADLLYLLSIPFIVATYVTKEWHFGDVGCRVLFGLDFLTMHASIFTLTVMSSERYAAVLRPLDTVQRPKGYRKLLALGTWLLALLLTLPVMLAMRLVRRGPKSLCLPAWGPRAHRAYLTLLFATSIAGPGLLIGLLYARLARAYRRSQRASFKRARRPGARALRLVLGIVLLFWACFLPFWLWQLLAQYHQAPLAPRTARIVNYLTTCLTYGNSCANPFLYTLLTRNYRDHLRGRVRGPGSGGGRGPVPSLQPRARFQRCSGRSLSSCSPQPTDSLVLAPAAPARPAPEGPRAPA

[2] = species on record: Rattus norvegicus; experiment: Agonist activity in rat aortic ring contraction assay; type: functional; settings: Aorta
[3] = species on record: Rattus norvegicus; experiment: Agonist activity in rat aortic ring contraction assay relative to 1 uM phenylephrine; type: functional
[4] = target: T2, Urotensin-2 receptor (Rattus norvegicus) (UniProt P49684); experiment: Antagonist activity against 1 uM human urotensin-2-induced contraction of rat aortic ring; type: functional, tissue-based; settings: Aorta
T2 sequence (whole entry): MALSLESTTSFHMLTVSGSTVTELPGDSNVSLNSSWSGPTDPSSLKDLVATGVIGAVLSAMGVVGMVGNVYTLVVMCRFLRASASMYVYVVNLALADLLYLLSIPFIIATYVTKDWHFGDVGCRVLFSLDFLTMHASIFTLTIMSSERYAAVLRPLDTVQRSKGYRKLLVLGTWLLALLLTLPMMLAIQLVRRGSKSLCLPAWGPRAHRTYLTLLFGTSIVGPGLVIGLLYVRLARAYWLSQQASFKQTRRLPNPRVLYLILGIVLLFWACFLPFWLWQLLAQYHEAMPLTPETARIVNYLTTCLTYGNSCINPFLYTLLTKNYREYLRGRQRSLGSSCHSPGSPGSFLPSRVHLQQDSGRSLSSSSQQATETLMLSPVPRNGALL

Row | Compound | Ki [1] | EC50 [2] | Activity ([3]; Aorta) | Activity [4] | Activity [3] | Log Ki [1]
1 | CC(C)[C@H](NC(=O)[C@@H]1CSSC[C@H](NC(=O)[C@@H](N)CC(=O)O)C(=O)N[C@H](CC2CCCCC2)C(=O)N[C@@H](Cc2c[nH]c3ccccc23)C(=O)N[C@@H](CCCCN)C(=O)N[C@@H](Cc2ccc(O)cc2)C(=O)N1)C(=O)O | > 10 µM | > 10 µM | inactive | inactive | – | –
2 | CC(C)[C@H](NC(=O)[C@@H]1CSSC[C@H](NC(=O)[C@H](C)N)C(=O)N[C@@H](CC2CCCCC2)C(=O)N[C@@H](Cc2c[nH]c3ccccc23)C(=O)N[C@@H](CCCCN)C(=O)N[C@@H](Cc2ccc(O)cc2)C(=O)N1)C(=O)O (H-AC[Cha]WKYCV-OH; disulfide 2-7) | 0.263 µM | 0.933 µM | – | inactive | 36.9% | –
3 | CC(C)[C@H](NC(=O)[C@@H]1CSSC[C@H](NC(=O)[C@@H](N)CC(=O)O)C(=O)N[C@@H](Cc2ccccc2)C(=O)N[C@@H](Cc2c[nH]c3ccccc23)C(=O)N[C@@H](CCCCN)C(=O)N[C@@H](Cc2ccc(O)cc2)C(=O)N1)C(=O)O (H-DCFWKYCV-OH; disulfide 2-7) | 0.00123 µM | 0.00501 µM | – | inactive | 102.1% | –
4 | CC(C)[C@H](NC(=O)[C@@H]1CSSC[C@H](NC(=O)[C@@H](N)CC(=O)O)C(=O)N[C@@H](Cc2cccs2)C(=O)N[C@@H](Cc2c[nH]c3ccccc23)C(=O)N[C@@H](CCCCN)C(=O)N[C@@H](Cc2ccc(O)cc2)C(=O)N1)C(=O)O (H-DC[2Thi]WKYCV-OH; disulfide 2-7) [listing 1 of 2 here] | – | 0.00891 µM | – | – | – | -8.54
5 | CC(C)[C@H](NC(=O)[C@@H]1CSSC[C@H](NC(=O)[C@@H](N)CC(=O)O)C(=O)N[C@@H](Cc2cccs2)C(=O)N[C@@H](Cc2c[nH]c3ccccc23)C(=O)N[C@@H](CCCCN)C(=O)N[C@@H](Cc2ccc(O)cc2)C(=O)N1)C(=O)O (H-DC[2Thi]WKYCV-OH; disulfide 2-7) [listing 2 of 2 here] | – | – | – | – | 94% | –
6 | CC(C)[C@H](NC(=O)[C@@H]1CSSC[C@H](NC(=O)[C@@H](N)CC(=O)O)C(=O)N[C@@H](Cc2csc3ccccc23)C(=O)N[C@@H](Cc2c[nH]c3ccccc23)C(=O)N[C@@H](CCCCN)C(=O)N[C@@H](Cc2ccc(O)cc2)C(=O)N1)C(=O)O (H-DC[Bta]WKYCV-OH; disulfide 2-7) [listing 1 of 2 here] | – | 0.288 µM | – | – | – | -8.95
7 | CC(C)[C@H](NC(=O)[C@@H]1CSSC[C@H](NC(=O)[C@@H](N)CC(=O)O)C(=O)N[C@@H](Cc2csc3ccccc23)C(=O)N[C@@H](Cc2c[nH]c3ccccc23)C(=O)N[C@@H](CCCCN)C(=O)N[C@@H](Cc2ccc(O)cc2)C(=O)N1)C(=O)O (H-DC[Bta]WKYCV-OH; disulfide 2-7) [listing 2 of 2 here] | – | – | – | – | 73.8% | –
8 | CC(C)[C@H](NC(=O)[C@@H]1CSSC[C@H](NC(=O)[C@@H](N)CC(=O)O)C(=O)N2[C@@H](C[C@@H]3CCCC[C@@H]32)C(=O)N[C@@H](Cc2c[nH]c3ccccc23)C(=O)N[C@@H](CCCCN)C(=O)N[C@@H](Cc2ccc(O)cc2)C(=O)N1)C(=O)O (H-DC[Oic]WKYCV-OH; disulfide 2-7) | – | > 10 µM | – | – | – | < -5
9 | CC(C)[C@H](NC(=O)[C@@H]1CSSC[C@H](NC(=O)[C@@H](N)CC(=O)O)C(=O)N[C@@H](Cc2ccc(C(C)(C)C)cc2)C(=O)N[C@@H](Cc2c[nH]c3ccccc23)C(=O)N[C@@H](CCCCN)C(=O)N[C@@H](Cc2ccc(O)cc2)C(=O)N1)C(=O)O (H-DC[Phe(4-tBu)]WKYCV-OH; disulfide 2-7) [listing 1 of 2 here] | – | 0.00407 µM | – | – | – | -7.63
10 | CC(C)[C@H](NC(=O)[C@@H]1CSSC[C@H](NC(=O)[C@@H](N)CC(=O)O)C(=O)N[C@@H](Cc2ccc(C(C)(C)C)cc2)C(=O)N[C@@H](Cc2c[nH]c3ccccc23)C(=O)N[C@@H](CCCCN)C(=O)N[C@@H](Cc2ccc(O)cc2)C(=O)N1)C(=O)O (H-DC[Phe(4-tBu)]WKYCV-OH; disulfide 2-7) [listing 2 of 2 here] | – | – | – | – | 76.7% | –
